ChEMBL document CHEMBL1201862, “PubChem BioAssay data set” (2004)
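Dose response: 5 concentrations. Exposure: 48 h. Format: 96-well plates. Endpoint: linear interpolation; highest concentration if not reached. GI50: concentration for 50% inhibition of growth.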 Active and inactive are the calls of the source. Rule as the data show it: active = GI50 up to about 1.1 µM and inactive = higher.

Key:
Experiment in all cases: NCI tumour cell line growth inhibition, 48 h
[1] = system: SW-620
[2] = system: HT-29
[3] = system: SR
[4] = system: SN12C
[5] = system: CAKI-1
[6] = system: SK-MEL-28
[7] = system: SNB-19
[8] = system: LOX IMVI
[9] = system: NCI-H522
[10] = system: NCI-H23
[11] = system: NCI-H460
[12] = system: 786-0
[13] = system: K562
[14] = system: MDA-N
[15] = system: OVCAR-5
[16] = system: RPMI-8226
[17] = system: A549
[18] = system: SK-MEL-2
[19] = system: RXF 393
[20] = system: Malme-3M

| SMILES | GI50 [1] | GI50 [2] | GI50 [3] | GI50 [4] | GI50 [5] | GI50 [6] | GI50 [7] | GI50 [8] | GI50 [9] | GI50 [10] | GI50 [11] | GI50 [12] | GI50 [13] | GI50 [14] | GI50 [15] | GI50 [16] | GI50 [17] | GI50 [18] | GI50 [19] | GI50 [20] |
| --- | --- | --- | --- | --- | --- | --- | --- | --- | --- | --- | --- | --- | --- | --- | --- | --- | --- | --- | --- | --- |
| CCCCCCCCCCCCCCCC[N+](C)(C)Cc1ccc(F)cc1 | 1.7 µM (inactive) | 1.26 µM (inactive) | 1.54 µM (inactive) | 1.62 µM (inactive) | 2.7 µM (inactive) | 3.08 µM (inactive) | 1.66 µM (inactive) | 1.47 µM (inactive) | 0.724 µM (active) | 2.16 µM (inactive) | 1.44 µM (inactive) | 1.47 µM (inactive) | 1.26 µM (inactive) | 1.96 µM (inactive) | 1.83 µM (inactive) | 1.06 µM (active) | 2.67 µM (inactive) | 1.62 µM (inactive) | 1.11 µM (active) | – |
| COc1ccc(CNc2nc3cc(C(F)(F)F)ccc3nc2-c2ccccc2)cc1OC | 18.5 µM (inactive) | 21.1 µM (inactive) | 15.3 µM (inactive) | > 10 µM (inactive) | 18 µM (inactive) | – | > 100 µM (inactive) | 24.7 µM (inactive) | 36.1 µM (inactive) | 20.8 µM (inactive) | 19.5 µM (inactive) | 33.4 µM (inactive) | 26.1 µM (inactive) | 37.2 µM (inactive) | 71.1 µM (inactive) | – | 26.9 µM (inactive) | 68.9 µM (inactive) | 22.8 µM (inactive) | 45.6 µM (inactive) |
| COc1ccc(CNc2nc3ccccc3nc2C(=O)O)cc1OC | > 100 µM (inactive) | > 100 µM (inactive) | > 100 µM (inactive) | 91.6 µM (inactive) | > 100 µM (inactive) | > 100 µM (inactive) | – | > 100 µM (inactive) | > 100 µM (inactive) | > 100 µM (inactive) | > 100 µM (inactive) | > 100 µM (inactive) | > 100 µM (inactive) | > 100 µM (inactive) | – | > 100 µM (inactive) | > 100 µM (inactive) | – | > 100 µM (inactive) | > 100 µM (inactive) |
| COc1ccc(C2(CC(C)O)SCCCS2)cc1 (stereo not given) | > 100 µM (inactive) | > 100 µM (inactive) | > 100 µM (inactive) | > 100 µM (inactive) | > 100 µM (inactive) | > 100 µM (inactive) | > 100 µM (inactive) | – | > 100 µM (inactive) | > 100 µM (inactive) | > 100 µM (inactive) | > 100 µM (inactive) | > 100 µM (inactive) | > 100 µM (inactive) | > 100 µM (inactive) | > 100 µM (inactive) | > 100 µM (inactive) | > 100 µM (inactive) | > 100 µM (inactive) | > 100 µM (inactive) |
| C=C(Cl)COC(=O)Nc1cccc(Cl)c1 | 39.3 µM (inactive) | 33.3 µM (inactive) | 51.1 µM (inactive) | 33.8 µM (inactive) | 31.9 µM (inactive) | 42.1 µM (inactive) | 35.6 µM (inactive) | 35.6 µM (inactive) | 25.1 µM (inactive) | 30.4 µM (inactive) | 32.6 µM (inactive) | 27.4 µM (inactive) | 54.6 µM (inactive) | 34.2 µM (inactive) | 48.2 µM (inactive) | 39.4 µM (inactive) | 30.3 µM (inactive) | 22.5 µM (inactive) | 25 µM (inactive) | – |
| COc1ccccc1C1c2cc3c(cc2OC2(OC)COC(=O)C12)OCO3 (stereo not given) | 6.7 µM (inactive) | 5.28 µM (inactive) | 3.8 µM (inactive) | 18.7 µM (inactive) | 20 µM (inactive) | 7.53 µM (inactive) | 21.2 µM (inactive) | 9.02 µM (inactive) | – | 29.2 µM (inactive) | 15.3 µM (inactive) | 19.1 µM (inactive) | 5.22 µM (inactive) | 2.24 µM (inactive) | 44.1 µM (inactive) | 8.07 µM (inactive) | 17.4 µM (inactive) | 7.43 µM (inactive) | 12.3 µM (inactive) | 15.2 µM (inactive) |
| Brc1ccc2c3c1[C@@H]1O[C@@H]1c1cccc(c1-3)[C@@H]1O[C@H]21 | 14.5 µM (inactive) | 17.6 µM (inactive) | > 100 µM (inactive) | 17.3 µM (inactive) | 13.1 µM (inactive) | 17.6 µM (inactive) | 22.3 µM (inactive) | 2.21 µM (inactive) | 13.8 µM (inactive) | 16.3 µM (inactive) | – | 16.5 µM (inactive) | > 39.9 µM (inactive) | 17.6 µM (inactive) | 17.6 µM (inactive) | 13.1 µM (inactive) | 26.1 µM (inactive) | 23.6 µM (inactive) | 17.1 µM (inactive) | 18.6 µM (inactive) |
